These results are taken from patent publication US20250144224A1, “ABL INHIBITORS AND USES THEREOF” (The Regents of the University of California, priority 2021, published 2025).

For one series, the system named is K562 cells (wild-type). As to the kind of experiment: CellTiter-Glo cell viability, K562 wild-type. The conditions noted are these: Homo sapiens, K562, 72 h, read-out: EC50 (nM) CTG K562 wt.
The test system of series [1] is K562 cells (CRISPR base-edited Bcr-Abl T315I). As to the kind of experiment: CellTiter-Glo cell viability, K562 Bcr-Abl T315I. The conditions noted are these: Homo sapiens, K562, 72 h, read-out: EC50 (nM) CTG K562 T315I. In general terms: ATP-based viability assays read luminescence as a measure of living cells.
Procedure: (§1) Compounds were tested for ability to inhibit cell growth. K562 cells (wild-type or CRISPR base-edited Bcr-Abl T315I) were plated at 1000 cells/well in 96-well plates and treated with the indicated compounds at the indicated concentrations for three days in triplicate, then tested for cell viability by the CellTiter-Glo 2.0 assay (Promega).
(§2) Compounds were tested for ability to inhibit cell growth. K562 cells (wild-type or CRISPR base-edited Bcr-Abl T315I) were plated at 1000 cells/well in 96-well plates and treated with the indicated compounds at the indicated concentrations for three days in triplicate, then tested for cell viability by the CellTiter-Glo 2.0 assay (Promega). […] Compounds were tested for ability to inhibit cell growth. K562 cells (wild-type or CRISPR base-edited Bcr-Abl T315I) were plated at 1000 cells/well in 96-well plates and treated with the indicated compounds at the indicated concentrations for three days in triplicate, then tested for cell viability by the CellTiter-Glo 2.0 assay (Promega).
(§3) Cells were treated with the indicated concentrations of compound in 9-point 3-fold dilution series (100 μL final volume per well) and incubated at 37° C. for 72 h. Cell viability was assessed by CellTiter-Glo (CTG) Luminescent Cell Viability Assay (Promega). Cells were equilibrated to room temperature before the addition of diluted (1:4 CTG reagent:PBS) CTG reagent (100 μL per well). Plates were agitated on an orbital shaker and luminescence signal was measured on a SpectraMax M5 (Molecular Devices) or Spark (Tecan) plate reader. Repeated measurements of luminescence were performed as technical replicates to determine incubation times optimal for signal-to-noise. Luminescence measurements were normalized to DMSO-treated values to determine relative cell viability.
Series [2] in a line: Parallel artificial membrane permeability assay (PAMPA). It is filed as in vitro ADME. The method, then: PAMPA was performed by Quintara Discovery using the BioCoat Pre-coated PAMPA Plate System (Corning) as described previously (15) and based on manufacturer's recommendations. All compounds were assessed at 100 μM in PBS. Compound concentrations in donor and acceptor compartments were quantified using liquid chromatography-mass spectrometry (LC-MS) 5 h following compound addition into the donor compartment.
A general note: PAMPA measures passive passage across an artificial lipid membrane.

For the next series, the target named is Abl wt (Homo sapiens, UniProt P00519). As to the kind of experiment: SelectScreen Z'LYTE kinase assay, Abl wt.
For another series, the target named is Abl_T315I (Homo sapiens, UniProt P00519, T315I). Put plainly: SelectScreen Z'LYTE kinase assay, Abl T315I.
Series [3] concerns K562 CRISPRi or CRISPRa cells expressing sgRNAs targeting IFITM1-3. Put plainly: Internally normalized cellular fluorescence uptake assay. The conditions noted are these: 24 h; TAMRA-N3 10 nM, TAMRA-PEG8-N3 1 μM, RapaTAMRA 1 nM.
Procedure: FIGS. 2B-2C: Measurement of fluorescent molecule uptake in K562 CRISPRi (FIG. 2B) or CRISPRa (FIG. 2C) cells expressing sgRNAs (sgRNA+). Cells were incubated with TAMRA-N3 (10 nM), TAMRA-PEG8-N3 (1 μM), or RapaTAMRA (1 nM) for 24 h. Uptake modulation by sgRNAs was quantified by internal normalization to non-transduced cells (sgRNA−) present within the mixture (i.e., relative cellular uptake). Data representative of three biological replicates. FIG. 2D: Changes in uptake of fluorescent molecules by sgRNAs targeting IFITM1-3 as in (FIGS. 2B-2C). […] Data represent means of three biological replicates.
K562 CRISPRi or CRISPRa cells stably expressing sgRNAs marked with BFP mixed at a 1:1 ratio with non-transduced (sgRNA−) cells (20,000 cells in 180 μL per well) were seeded into 96-well round bottom plates and incubated at 37° C. overnight. Cells were treated with fluorescent compounds at the concentrations indicated (200 μL final volume per well) and incubated at 37° C. for 24 h. Cells were pelleted at 500 g, washed twice with ice-cold PBS supplemented with 1% bovine serum albumin (Millipore) and 0.1% NaN3, and resuspended in the same before assessment by flow cytometry on an Attune NxT (Thermo Fisher Scientific). […] Relative cellular uptake was determined by dividing the median TAMRA fluorescence intensity of BFP+ populations by that of BFP—populations (FIG. 2B). […]

Procedure for Abl wt: (§4) Biochemical inhibition of BCR-ABL (wild type) and BCR-ABL (T315I). […] Biochemical experiments performed by Thermo SelectScreen, under conditions which mask the effects of allosteric inhibition. Conditions contain 0.01% BRIJ-35, a common non-ionic detergent added to kinase assay buffers.
(§5) Compounds were tested for ability to inhibit wild-type and T315I Abl kinases in vitro at the indicated concentrations by the SelectScreen Z'LYTE assay (Thermo Scientific).
Procedure for Abl_T315I: as §4, §5
Procedure for K562 cells (wild-type): as §1, §2, §3

By EC50 is commonly meant the concentration at which the effect is half-maximal. On to `Cc1ccc(C(=O)Nc2ccc(CN3CCN(C(=O)CCOCCOCCOCCOCCOCCOCCOCCOCCOCCOCCOCCOCCOCCOCCOCCOCCOCCOCCOCCOCCOCCOCCOCCOCCOCCOCCOCCOCCNC(=O)C4CCN(c5ncc(C(=O)Nc6ccc(OC(F)(F)Cl)cc6)cc5-c5ccn[nH]5)CC4)CC3)c(C(F)(F)F)c2)cc1C#Cc1cnc2cccnn12` [PonatiLink-1-28], for which the EC50 amounted to 1.82 nM in the series on K562 cells (wild-type) and 49.1 nM in series [1].

As for `O=C(Nc1ccc(OC(F)(F)Cl)cc1)c1cnc(N2CC[C@@H](O)C2)c(-c2ccn[nH]2)c1` [asciminib, reference compound], the “artificial membrane permeability by PAMPA” value in series [2] (100 μM in PBS, 5 h, LC-MS) was “readily permeable”.

Take `CC(C)n1nc(-c2ccc3oc(N)nc3c2)c2c(N)ncnc21` [sapanisertib]: the “artificial membrane permeability by PAMPA” value in series [2] (100 μM in PBS, 5 h, LC-MS) is “readily permeable”.

Regarding `Cc1ccc(C(=O)Nc2ccc(CN3CCN(C)CC3)c(C(F)(F)F)c2)cc1C#Cc1cnc2cc(OCCOCCOCCOCCOCCOCCOCCNC(=O)CCOCCOCCOCCOCCOCCOCCNC(=O)C3CCN(c4ncc(C(=O)Nc5ccc(OC(F)(F)Cl)cc5)cc4-c4ccn[nH]4)CC3)ccn12` [PonatiLink-2-7-6], the results for the half-maximal effective concentration (EC50) (in the series with K562 cells (wild-type); in series [1]) were 0.38 nM and 1.06 nM, respectively.

`Cc1ccc(C(=O)Nc2ccc(CN3CCN(C)CC3)c(C(F)(F)F)c2)cc1C#Cc1cnc2cc(OCCOCCOCCOCCOCCOCCOCCNC(=O)CCOCCOCCOCCOCCOCCOCCOCCOCCOCCOCCNC(=O)C3CCN(c4ncc(C(=O)Nc5ccc(OC(F)(F)Cl)cc5)cc4-c4ccn[nH]4)CC3)ccn12` [PonatiLink-2-7-10]: the EC50 in the series with K562 cells (wild-type) came to 0.43 nM; in series [1], 0.94 nM.

Take `Cc1ccc(C(=O)Nc2ccc(CN3CCN(C(=O)CCOCCOCCOCCOCCOCCOCCOCCOCCOCCOCCOCCOCCOCCOCCOCCOCCOCCOCCOCCOCCNC(=O)C4CCN(c5ncc(C(=O)Nc6ccc(OC(F)(F)Cl)cc6)cc5-c5ccn[nH]5)CC4)CC3)c(C(F)(F)F)c2)cc1C#Cc1cnc2cccnn12` [PonatiLink-1-20]: the EC50 was found to be 10.8 nM at Abl wt, 1.02 nM with K562 cells (wild-type), 26.2 nM in series [1] and 215 nM at Abl_T315I.

In the case of `Cc1ccc(C(=O)Nc2ccc(CN3CCN(C(=O)CCOCCOCCOCCOCCOCCOCCOCCOCCOCCOCCOCCOCCOCCOCCOCCOCCOCCOCCOCCOCCOCCOCCOCCOCCNC(=O)C4CCN(c5ncc(C(=O)Nc6ccc(OC(F)(F)Cl)cc6)cc5-c5ccn[nH]5)CC4)CC3)c(C(F)(F)F)c2)cc1C#Cc1cnc2cccnn12` [PonatiLink-1-24], the EC50 worked out at 0.87 nM in the series on K562 cells (wild-type) and 26.3 nM in series [1].

For `CO[C@H]1C[C@@H]2CC[C@@H](C)[C@@](O)(O2)C(=O)C(=O)N2CCCC[C@H]2C(=O)O[C@H]([C@H](C)C[C@@H]2CC[C@@H](OCCOCc3cn(CCOCCOCCOCCOCCOCCOCCOCCOCCNC(=O)c4ccc(C(=O)[O-])c(-c5c6ccc(=[N+](C)C)cc-6oc6cc(N(C)C)ccc56)c4)nn3)[C@H](OC)C2)CC(=O)[C@H](C)/C=C(\C)[C@@H](O)[C@@H](OC)C(=O)[C@H](C)C[C@H](C)/C=C/C=C/C=C/1C` [RapaTAMRA], the “change in relative cellular uptake with IFITM1-3 knockdown / overexpression” value in series [3] was “decreased uptake upon knockdown of IFITM1-3 and increased uptake upon overexpression”.

Take `Cc1nc(Nc2ncc(C(=O)Nc3c(C)cccc3Cl)s2)cc(N2CCN(CCO)CC2)n1` [dasatinib]: the “artificial membrane permeability by PAMPA” value in series [2] (100 μM in PBS, 5 h, LC-MS) is on record as “readily permeable”.

For `Cc1nc(Nc2ncc(C(=O)Nc3c(C)cccc3Cl)s2)cc(N2CCN(C(=O)CCOCCOCCOCCOCCOCCOCCNC(=O)C3CCN(c4ncc(C(=O)Nc5ccc(OC(F)(F)Cl)cc5)cc4-c4ccn[nH]4)CC3)CC2)n1` [DasatiLink-4], the EC50 on Abl wt is 1.81 nM; in the series with K562 cells (wild-type) it was 2.62 nM; in series [1] it was over 300 nM.

As to `Cc1ccc(C(=O)Nc2ccc(CN3CCN(C)CC3)c(C(F)(F)F)c2)cc1C#Cc1cnc2cc(OCCOCCOCCOCCOCCOCCOCCNC(=O)CCOCCOCCOCCOCCOCCOCCOCCOCCNC(=O)C3CCN(c4ncc(C(=O)Nc5ccc(OC(F)(F)Cl)cc5)cc4-c4ccn[nH]4)CC3)ccn12` [PonatiLink-2-7-8], the results for the EC50 (in the series with K562 cells (wild-type); in series [1]) were 0.36 nM and 0.94 nM, respectively.

Consider `Cc1nc(Nc2ncc(C(=O)Nc3c(C)cccc3Cl)s2)cc(N2CCN(C(=O)CCOCCOCCOCCOCCOCCOCCOCCOCCNC(=O)C3CCN(c4ncc(C(=O)Nc5ccc(OC(F)(F)Cl)cc5)cc4-c4ccn[nH]4)CC3)CC2)n1` [DasatiLink-3], for which the EC50 on Abl wt was 1.04 nM; in the series on K562 cells (wild-type), 2.94 nM; in series [1], over 300 nM.

In the case of `Cc1nc(Nc2ncc(C(=O)Nc3c(C)cccc3Cl)s2)cc(N2CCN(C(=O)CCOCCOCCOCCOCCOCCOCCOCCOCCOCCOCCNC(=O)C3CCN(c4ncc(C(=O)Nc5ccc(OC(F)(F)Cl)cc5)cc4-c4ccn[nH]4)CC3)CC2)n1` [DasatiLink-2], the EC50 is 2.49 nM in the series on K562 cells (wild-type) and over 300 nM in series [1].

For the molecule `CO[C@@H]1C[C@@H]2CC[C@@H](C)[C@@](O)(O2)C(=O)C(=O)N2CCCC[C@@H]2C(=O)O[C@H]([C@H](C)C[C@H]2CC[C@H](OCCOCc3cn(CCOCCOCCOCCOCCOCCOCCOCCOCCC(=O)NCCCCn4nc(-c5ccc6oc(N)nc6c5)c5c(N)ncnc54)nn3)[C@H](OC)C2)CC(=O)[C@H](C)/C=C(\C)[C@H](O)[C@@H](OC)C(=O)[C@H](C)C[C@H](C)/C=C/C=C/C=C/1C` [RapaLink-1], the “artificial membrane permeability by PAMPA” value in series [2] (PAMPA) was “no measurable permeability”.

For the molecule `Cc1ccc(C(=O)Nc2ccc(CN3CCN(C(=O)CCOCCOCCOCCOCCOCCOCCOCCOCCOCCOCCOCCOCCNC(=O)C4CCN(c5ncc(C(=O)Nc6ccc(OC(F)(F)Cl)cc6)cc5-c5ccn[nH]5)CC4)CC3)c(C(F)(F)F)c2)cc1C#Cc1cnc2cccnn12` [PonatiLink-1-12], the EC50 at Abl wt came out at 319 nM; with K562 cells (wild-type) it was 2.76 nM; in series [1], 43.7 nM; at Abl_T315I, 3580 nM.

In the case of `Cc1ccc(C(=O)Nc2ccc(CN3CCN(C(=O)CCOCCOCCOCCOCCOCCOCCOCCOCCOCCOCCOCCOCCOCCOCCOCCOCCNC(=O)C4CCN(c5ncc(C(=O)Nc6ccc(OC(F)(F)Cl)cc6)cc5-c5ccn[nH]5)CC4)CC3)c(C(F)(F)F)c2)cc1C#Cc1cnc2cccnn12` [PonatiLink-1-16], the EC50 on Abl wt came to 82 nM; with K562 cells (wild-type) it was 1.4 nM; in series [1], 28.7 nM; on Abl_T315I, 229 nM.

With `Cc1ccc(C(=O)Nc2ccc(CN3CCN(C)CC3)c(C(F)(F)F)c2)cc1C#Cc1cnc2cc(OCCOCCOCCOCCOCCOCCOCCNC(=O)CCOCCOCCOCCOCCNC(=O)C3CCN(c4ncc(C(=O)Nc5ccc(OC(F)(F)Cl)cc5)cc4-c4ccn[nH]4)CC3)ccn12` [PonatiLink-2-7-4], the results for the concentration giving a half-maximal response (EC50) (with K562 cells (wild-type); in series [1]) were 0.39 nM and 1.3 nM, respectively.

`CO[C@H]1C[C@@H]2CC[C@@H](C)[C@@](O)(O2)C(=O)C(=O)N2CCCC[C@H]2C(=O)O[C@H]([C@H](C)C[C@@H]2CC[C@@H](O)[C@H](OC)C2)CC(=O)[C@H](C)/C=C(\C)[C@@H](O)[C@@H](OC)C(=O)[C@H](C)C[C@H](C)/C=C/C=C/C=C/1C` [rapamycin]: the “artificial membrane permeability by PAMPA” value in series [2] (100 μM in PBS, 5 h, LC-MS) is reported as “readily permeable”.
